One data set has as its target GST-Bcl-xL (Homo sapiens, UniProt Q07817). As to the kind of experiment: FP binding affinity of fluorescein-labeled peptides, Bcl-xL.
Data set [1] has as its system HeLa cells. Briefly: FACS analysis of cell permeability of fluorescein-conjugated peptides. Particulars: 10 μM fluorescein-conjugated peptide, 2 h. Format: cell-based. How it is done:
FACS Analysis. HeLa Cells were cultured in DMEM medium supplemented with 10% fetal bovine serum in 6-well plate in a 37° C., 5% CO2 incubator to reach confluency of around 70%. The cells were then washed twice with PBS before switching to serum-free DMEM medium. After standing in the incubator for 30 minutes, appropriate amounts of peptides (1 mM in DMSO) were added to the culture plate to obtain a final peptide concentration of 10 μM. Cells were incubated at 37° C. for additional 2 hrs. Then the medium was removed and the cells were washed with PBS (3×) followed by treatment with trypsin to detach the cells. After a brief low-speed centrifugation, the HeLa cells were collected and re-suspended in PBS for the FACS analysis.
For orientation: Flow cytometry measures light scatter and fluorescence of single cells or particles in a stream.

Data set [2] deals with HeLa cells. Briefly: Cell viability assay (CellTiter-Glo, ATP) and DIC imaging, cytotoxicity. Type of data set: cell-based. Particulars: 10 μM, 2 hours; DIC channel and ATP assay. How it is done: FIG. 8. (a) Confocal images of fixed HeLa cells after treatment with 10 μM of fluorescein-conjugated peptides for 2 hours. Scale bar=50 μm. (b) Cell viability assay using the CellTiter-Glo reagent.
Cell Viability Assay. HeLa cells were seeded into an opaque 96-well plate at a density of 1×10^4 per well in 100 μL DMEM medium supplemented with 10% FBS and the cells were allowed to grow in a 37° C. 5% CO2 incubator for 48 hrs to reach confluency of around 80%. Prior to the compound treatment, the medium was replaced with serum-free medium and the cells were incubated for 30 minutes. Appropriate amounts of peptides (1 mM in DMSO) were then added to obtain a final concentration of 10 μM and the cells were incubated at 37° C. for 2 hours. Afterwards, the plate was allowed to stand at room temperature for 30 minutes before 100 μL of Cell-Titer Glow reagent (Promega) was added. The plate was incubated at room temperature for 10 minutes. The luminescence signals were recorded with an FLX 800 luminescence plate reader (BioTek). The plotted data represented the average of the readings from 4 separate wells.

For data set [3], the target named is T1, full-length human MDMX (GST-MDMX) (Homo sapiens, UniProt O15151).
T1 construct: GST-MDM2 and GST-MDMX containing full-length human MDM2 and MDMX; made in house; host or cells: Escherichia coli
T1 sequence (O15151 1-490): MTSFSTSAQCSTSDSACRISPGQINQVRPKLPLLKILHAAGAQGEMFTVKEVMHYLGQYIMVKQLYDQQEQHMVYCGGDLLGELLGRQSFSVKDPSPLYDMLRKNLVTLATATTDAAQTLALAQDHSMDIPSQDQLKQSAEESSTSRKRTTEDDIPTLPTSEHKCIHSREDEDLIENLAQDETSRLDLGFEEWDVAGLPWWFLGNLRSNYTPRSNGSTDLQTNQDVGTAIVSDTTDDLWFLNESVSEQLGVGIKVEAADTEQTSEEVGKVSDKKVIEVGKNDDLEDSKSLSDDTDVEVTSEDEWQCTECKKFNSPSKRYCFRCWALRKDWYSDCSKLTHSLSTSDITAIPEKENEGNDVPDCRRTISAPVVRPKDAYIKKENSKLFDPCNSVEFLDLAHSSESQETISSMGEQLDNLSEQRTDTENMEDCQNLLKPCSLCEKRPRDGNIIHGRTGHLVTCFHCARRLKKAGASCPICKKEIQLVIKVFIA
As to the kind of experiment: ELISA, inhibition of p53-MDMX interaction. Type of data set: binding. Particulars: relative to linear counterpart 3. From the text:
FIG. 10. ELISA data of the cross-linked PDI analogs. The experiments were repeated three times and the resulting data were plotted with GraphPad Prism 5.0 to derive the average IC50 values along with standard deviations.
ELISA Assay. GST-MDM2 and GST-MDMX containing full-length human MDM2 and MDMX and His6-tagged human p53 were expressed in Escherichia coli and purified by glutathione agarose and Ni^2+-nitrilotriacetic acid beads, respectively, under non-denaturing conditions. Microtiter plates were coated with 2.5 μg/ml His6-p53 in PBS buffer for 16 hours. After washing with PBS containing 0.1% Tween-20 (PBST), the plates were blocked with PBST containing 5% nonfat dry milk (PBSTM) for 30 minutes. Peptides were dissolved in DMSO. GST-MDM2 and MDMX (5 μg/ml) were mixed with peptides in PBSMT containing 10% glycerol and 10 mM dithiolthreitol prior to their additions to the wells at the specified concentrations. The incubation was allowed to proceed for 1 hour at room temperature before the plates were washed with PBST. […] The plates were developed by incubation with TMB peroxidase substrate (KPL, Gaithersburg, Md.) and measured by absorbance at 450 nm. The data was analyzed with the Origin 6.0 software. […]

In data set [4] the target is Mcl-1 (Homo sapiens, UniProt Q07820). As to the kind of experiment: ELISA of cross-linked Noxa peptides. Format: binding. In general terms: An ELISA detects its analyte on a solid surface through an enzyme-linked reagent.
A further data set has as its target GST-Mcl-1 (Homo sapiens, UniProt Q07820). Briefly: Competitive fluorescence polarization assay. Format: binding. Particulars: for IC50: Noxa peptides, three repeats ± SD, read-out: FP, IC50. How it is done: Competitive Florescence Polarization Assay. The binding affinity of the Noxa peptides toward GST-Mcl-1 was determined in a competitive fluorescence polarization assay with the fluorescein-labeled Bak or Bim. Briefly, fluorescein-labeled Bak was incubated with GST-Mcl-1 in a binding buffer (PBS, 0.005% Tween-20, pH7.4) at room temperature in a 96-well microtiter plate. […] The reading was repeated at various time points to ensure that the competition has reached equilibrium.

The nature of data set [5]: Circular dichroism, percent helicity. Type of data set: physicochemical. Particulars: compared to the linear NoxaBH3 peptide, 50 μM in 20% ACN/H2O. Here is the method: FIG. 12. […] The peptides were dissolved in 20% ACN/H2O for a final concentration of 50 μM.
Circular Dichroism Study. […] The spectra were recorded in the wavelength range of 190-250 nm and averaged over 3 scans with a resolution of 0.5 nm, a bandwidth of 1.0 nm and a response time of 4 s. The sensitivity and the speed of the spectrometer were set to 100 mdeg and 50 nm/min, respectively. All peptides were dissolved in 20% acetonitrile/H2O to reach final concentration of 50 μM.
Background: Circular dichroism is the unequal absorption of left and right circularly polarised light.

The next data set addresses chymotrypsin (Bos taurus, UniProt P00766). As to the kind of experiment: Chymotrypsin proteolytic stability assay. Conditions: cattle (bovine), chymotrypsin (Type II, Sigma) in NH4HCO3 buffer, pH 8.
In data set [6] the target is Mcl-1 (Mus musculus, UniProt P97287). Conditions: background literature; read-out: IC50 against Mcl-1; cited from earlier work.

Numbered stars: 1 amine (or outer) side, 2 acyl side, 3 side chain; on linkers, the order of the positions; unused ones are H or OH. Bridge positions count the residues as written; N and C are the ends. Square brackets hold non-standard residues; d marks the D form. Ends that are not written are not given here. Peptide text beside a SMILES is read from it. BMA = bismethylene aryl moiety linked through two thioether bonds; CH2(3,3'-bipyridine-6,6')CH2 = c1cc(C[*:1])ncc1-c1ccc(C[*:2])nc1; Biphenyl(4,4'-CH2)2 = c1cc(-c2ccc(C[*:2])cc2)ccc1C[*:1]

These results are taken from patent US9029332B2, “Cross-linked peptides and proteins, methods of making same, and uses thereof” (The Research Foundation for The State University of New York, priority 2010, dated 2015).

GST-Mcl-1, sequence (Q07820 whole entry): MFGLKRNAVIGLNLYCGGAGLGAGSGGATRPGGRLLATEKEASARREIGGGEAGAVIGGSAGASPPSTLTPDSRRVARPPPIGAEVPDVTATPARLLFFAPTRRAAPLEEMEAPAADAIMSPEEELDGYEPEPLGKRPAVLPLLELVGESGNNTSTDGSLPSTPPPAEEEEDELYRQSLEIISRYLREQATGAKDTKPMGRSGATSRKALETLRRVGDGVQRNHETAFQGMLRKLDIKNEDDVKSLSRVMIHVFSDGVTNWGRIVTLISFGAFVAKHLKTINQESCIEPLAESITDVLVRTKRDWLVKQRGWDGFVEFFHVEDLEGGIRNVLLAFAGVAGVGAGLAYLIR
Mcl-1 (Homo sapiens, UniProt Q07820), sequence (Q07820 whole entry, species assumed): as the sequence (Q07820 whole entry) above
Mcl-1 (Mus musculus, UniProt P97287), sequence (P97287 152-308 limits assumed): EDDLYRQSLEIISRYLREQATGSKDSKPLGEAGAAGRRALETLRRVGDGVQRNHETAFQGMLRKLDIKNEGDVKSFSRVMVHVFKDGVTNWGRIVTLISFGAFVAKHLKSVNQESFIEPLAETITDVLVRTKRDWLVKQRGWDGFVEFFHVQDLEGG
GST-Bcl-xL, sequence (Q07817 whole entry): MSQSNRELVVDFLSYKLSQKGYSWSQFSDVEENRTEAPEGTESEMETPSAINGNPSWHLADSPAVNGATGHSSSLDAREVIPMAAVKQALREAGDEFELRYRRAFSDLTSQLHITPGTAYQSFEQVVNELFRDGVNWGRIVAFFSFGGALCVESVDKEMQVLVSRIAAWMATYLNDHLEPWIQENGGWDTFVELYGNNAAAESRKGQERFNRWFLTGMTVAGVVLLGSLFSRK
Procedure for chymotrypsin: Proteolytic stability of the linear and stapled Noxa peptides against trypsin (Type IX-S, 13,000-20,000 unit/mg, Sigma) and chymotrypsin (Type II, 40 unit/mg, Sigma). To a solution of 400 μL of 0.25 mM peptide in NH4HCO3 buffer, pH 8.0, was added 80 μL trypsin (5 μg/mL) or chymotrypsin (25 μg/mL), and the resulting solution was incubated at 37° C. At the indicated times, 40 μL of the solution was transferred to 40 μL trifluoroacetic acid to quench the reaction. The samples were analyzed by reverse-phase HPLC using benzophenone as an injection control.

For orientation: Kd means the free concentration of one partner at which half of the binding sites on the other are occupied at equilibrium, for simple one-to-one binding. Read a low Kd as higher affinity. `CC[C@H](C)[C@H](NC(=O)[C@H](CCCNC(=N)N)NC(=O)[C@H](CCCNC(=N)N)NC(=O)[C@H](CC(C)C)NC(=O)[C@H](CCC(N)=O)NC(=O)[C@H](C)NC(=O)[C@H](C)NC(=O)CCCCCNC(=S)Nc1ccc2c(c1)C(=O)OC21c2ccc(O)cc2Oc2cc(O)ccc21)C(=O)NCC(=O)N[C@@H](CC(=O)O)C(=O)N[C@@H](CCCCN)C(=O)N[C@H](C(=O)N[C@@H](CC(N)=O)C(=O)N[C@@H](CC(C)C)C(=O)N[C@@H](CCCNC(=N)N)C(=O)N[C@@H](CCC(N)=O)C(=O)N[C@@H](CCCCN)C(=O)N[C@@H](CC(C)C)C(=O)N[C@@H](CC(C)C)C(=O)N[C@@H](CC(N)=O)C(N)=O)C(C)C` [Fl-NoxaB^75-93-C75A] yielded a Kd at GST-Bcl-xL greater than 2000 nM. On to `CC(=O)N[C@@H](CC(C)C)C(=O)N[C@H](C(=O)N[C@@H](Cc1ccccc1)C(=O)N[C@@H](CS)C(=O)N[C@@H](Cc1c[nH]cn1)C(=O)N[C@@H](Cc1ccc(O)cc1)C(=O)N[C@@H](Cc1c[nH]c2ccccc12)C(=O)N[C@@H](C)C(=O)N[C@@H](CCC(N)=O)C(=O)N[C@@H](CC(C)C)C(=O)N[C@@H](CS)C(=O)N[C@@H](CO)C(N)=O)[C@@H](C)O` [Peptide 1] (Ac-LTFCHYWAQLCS-NH2), for which the cell penetration result with HeLa cells [1] (relative to DMSO control) is reported as “minimal cell penetration”. For `CC(=O)N[C@@H](CC(C)C)C(=O)N[C@H](C(=O)N[C@@H](Cc1ccccc1)C(=O)N[C@H]1CSCc2ccc(cn2)-c2ccc(nc2)CSC[C@@H](C(=O)N[C@@H](CO)C(N)=O)NC(=O)[C@H](CC(C)C)NC(=O)[C@H](CCC(N)=O)NC(=O)[C@H](C)NC(=O)[C@H](Cc2c[nH]c3ccccc23)NC(=O)[C@H](Cc2ccc(O)cc2)NC(=O)[C@H](Cc2c[nH]cn2)NC1=O)[C@@H](C)O` [Peptide 1b, LTFC″HYWAQLC″S] (Ac-LTFCHYWAQLCS-NH2; linker 4-11 via CH2(3,3'-bipyridine-6,6')CH2; C-terminus assumed), the “increase in mean fluorescence by Bpy cross-linking” value in the data set on HeLa cells [1] (over linear counterpart) is roughly 6 fold. Moreover, the cytotoxicity result in the data set on HeLa cells [2] is listed as “did not show any cytotoxicity”. Consider `CC(=O)N[C@@H](CC(C)C)C(=O)N[C@H](C(=O)N[C@@H](Cc1ccccc1)C(=O)N[C@@H]1CSCc2ccc(cc2)-c2ccc(cc2)CSC[C@@H](C(=O)N[C@@H](CO)C(N)=O)NC(=O)[C@H](CC(C)C)NC(=O)[C@H](CCC(N)=O)NC(=O)[C@H](C)NC(=O)[C@H](Cc2c[nH]c3ccccc23)NC(=O)[C@H](Cc2ccc(O)cc2)NC(=O)[C@H](Cc2c[nH]cn2)NC1=O)[C@@H](C)O` [Peptide 3a, LTFc′HYWAQLC′S] (Ac-LTF[dC]HYWAQLCS-NH2; linker 4-11 via Biphenyl(4,4'-CH2)2), for which the “increase in MDMX activity” value in data set [3] is recorded as 15 fold. As a reminder, the IC50 is the point on the concentration scale where inhibition reaches its midpoint. Consider `CC[C@H](C)[C@@H]1NC(=O)[C@H](CCCNC(=N)N)NC(=O)[C@H](CCCNC(=N)N)NC(=O)[C@H](CC(C)C)NC(=O)[C@@H](NC(=O)[C@H](C)NC(=O)[C@H](C)NC(C)=O)CSCc2ccc(cc2)-c2ccc(cc2)CSC[C@@H](C(=O)N[C@H](C(=O)N[C@@H](CC(N)=O)C(=O)N[C@@H](CC(C)C)C(=O)N[C@@H](CCCNC(=N)N)C(=O)N[C@@H](CCC(N)=O)C(=O)N[C@@H](CCCCN)C(=O)N[C@@H](CC(C)C)C(=O)N[C@@H](CC(C)C)C(=O)N[C@@H](CC(N)=O)C(N)=O)C(C)C)NC(=O)[C@H](CC(=O)O)NC(=O)CNC1=O` [Peptide 5a], for which the half-maximal inhibitory concentration (IC50) on Mcl-1 [4] amounted to 75 nM; at GST-Mcl-1, 18 ± 6 nM. Besides, at GST-Mcl-1 (compared to the parent linear peptide), the “increase in activity in FPA” value turned out to be 67 fold. In [5], the “enhancement in percent helicity” value is “roughly 2 fold”.

As a reminder, the half-life is the time needed for the level to fall by half in the phase considered. With `CC[C@H](C)[C@@H]1NC(=O)[C@H](CCCNC(=N)N)NC(=O)[C@H](CCCNC(=N)N)NC(=O)[C@H](CC(C)C)NC(=O)[C@@H](NC(=O)[C@H](C)NC(=O)[C@H](C)NC(C)=O)CSCc2ccc(cn2)-c2ccc(nc2)CSC[C@@H](C(=O)N[C@H](C(=O)N[C@@H](CC(N)=O)C(=O)N[C@@H](CC(C)C)C(=O)N[C@@H](CCCNC(=N)N)C(=O)N[C@@H](CCC(N)=O)C(=O)N[C@@H](CCCCN)C(=O)N[C@@H](CC(C)C)C(=O)N[C@@H](CC(C)C)C(=O)N[C@@H](CC(N)=O)C(N)=O)C(C)C)NC(=O)[C@H](CC(=O)O)NC(=O)CNC1=O` [Peptide 5b], the values for the IC50 at Mcl-1 [4] and at GST-Mcl-1 were 25 nM and 45 ± 9 nM, respectively. On chymotrypsin, this molecule came in with a half-life at 0.208 mM of 22 min. For the same molecule, the “enhancement in percent helicity” value in data set [5] is recorded as “roughly 2 fold”. With “LTFCRYWARLCS (LTFCRYWARLCS-NH2; linker 4-11 via BMA (inferred); not fully specified) [Peptide 2, linear arginine-substituted dicysteine PDI analog]”, the “increase in mean fluorescence / permeability by arginine substitution” value with HeLa cells [1] (compared to charge-neutral counterpart) is 2.5 fold. Regarding “NoxaA-(16-41): BH3 peptide derived from mouse Noxa (RAELPPEFAAQLRKIGDKVYCTWSAP; UniProt Q9JM54 16-41, looked up, fragment)”, the IC50 with Mcl-1 [6] is 87 nM. As for “NoxaB-(68-93): BH3 peptide derived from mouse Noxa (PADLKDECAQLRRIGDKVNLRQKLLN; UniProt Q9JM54 68-93, looked up, fragment)”, the IC50 with Mcl-1 [6] was 109 nM.
